Data reported in patent publication US20060140885A1, “Method of reducing oral tissue inflammation using magnolia extract” (priority 2004, published 2006).

Test system: S. mutans
Test: Minimal Inhibitory Concentration (MIC) in vitro test against S. mutans
Type: cell-based
Text: The compositions of the present invention comprise an extract of magnolia. As referred to here, such an “extract” of magnolia is an extract from dried cortex, or bark, of a plant from the Magnoliaceae family, such as Magnolia officinalis, (hereinafter “magnolia”) or a synthetic or semi-synthetic equivalent of such an extract or an active component or compound thereof. […] It should be noted that any plant from the Magnoliaceae family is suitable for the present invention and may be used in alternate embodiments, preferably such that the extract comprises an antimicrobially effective concentration of a compound selected from the group consisting of magnolol, honokiol, tetrahydromagnolol, tetrahydrohonokiol, and mixtures thereof.

SMILES	bactericidal properties against S. mutans (MIC test)
C=CCc1ccc(O)c(-c2ccc(O)c(CC=C)c2)c1 [honokiol]	bactericidal properties
C=CCc1ccc(O)c(-c2cc(CC=C)ccc2O)c1 [magnolol]	bactericidal properties
CCCc1ccc(O)c(-c2ccc(O)c(CCC)c2)c1 [tetrahydrohonokiol]	bactericidal properties
CCCc1ccc(O)c(-c2cc(CCC)ccc2O)c1 [tetrahydromagnolol]	bactericidal properties
